# In ChEMBL document CHEMBL5634175, “Genome-Driven Discovery of Hygrocins in Streptomyces rapamycinicus” (2024):
# Key:
# Type in all cases: functional
# Staphylococcus aureus = test: Antibacterial activity against Staphylococcus aureus 8325 incubated for 12 hrs by broth microdilution method
# Bacillus subtilis = test: Antibacterial activity against Bacillus subtilis incubated for 12 hrs by broth microdilution method
# Pseudomonas aeruginosa = test: Antibacterial activity against Pseudomonas aeruginosa PAO1 incubated for 12 hrs by broth microdilution method
# Candida albicans = test: Antifungal activity against Candida albicans IBT 656 incubated for 24 hrs by broth microdilution method
Compound,MIC (Staphylococcus aureus) [µg/mL],MIC (Bacillus subtilis) [µg/mL],MIC (Pseudomonas aeruginosa) [µg/mL],MIC (Candida albicans) [µg/mL]
CC[C@H]1/C=C/[C@H](O)[C@@H](C)OC(=O)/C(C)=C\CC(=O)Nc2cc(O)cc3c2O[C@@]2(CC1)CC(=O)[C@H](C)[C@H]3O2,> 50,> 50,> 50,> 50
CC[C@@H](/C=C/[C@H](O)[C@H](C)OC(=O)/C(C)=C\C1=C2C(=CC(=O)c3cc(O)c(C)cc32)NC1=O)CCC(=O)O,> 50,> 50,> 50,> 50
CC[C@@H](/C=C/[C@H](OC(=O)/C(C)=C\C1=C2C(=CC(=O)c3cc(O)c(C)cc32)NC1=O)[C@H](C)O)CCC(=O)O,> 50,> 50,> 50,> 50
CC[C@H]1/C=C/[C@@H]([C@@H](C)O)OC(=O)/C(C)=C\CC(=O)Nc2cc(O)cc3c2O[C@@]2(CC1)CC(=O)[C@@H](C)[C@@H]3O2,> 50,> 50,> 50,> 50

# Next, values leading:
MIC (Staphylococcus aureus) [µg/mL],MIC (Bacillus subtilis) [µg/mL],MIC (Pseudomonas aeruginosa) [µg/mL],MIC (Candida albicans) [µg/mL],Compound
> 50,> 50,> 50,> 50,CC[C@@H](/C=C/[C@H](OC(=O)/C(C)=C\[C@@H]1C(=O)NC2=CC(=O)c3cc(O)c(C)cc3[C@]21O)[C@H](C)O)CCC(=O)O
> 50,> 50,> 50,> 50,CC[C@@H](/C=C/[C@H](OC(=O)/C(C)=C\[C@H]1C(=O)NC2=CC(=O)c3cc(O)c(C)cc3[C@@]21O)[C@H](C)O)CCC(=O)O
> 50,> 50,> 50,> 50,CC[C@@H](/C=C/[C@H](O)[C@H](C)OC(=O)/C(C)=C\[C@@H]1C(=O)NC2=CC(=O)c3cc(O)c(C)cc3[C@]21O)CCC(=O)O
